Values of other authors, collected in patent publication US7943615B2, “Fused aminopiperidines as dipeptidyl peptidase-4 inhibitors for the treatment or prevention of diabetes” (Merck Sharp & Dohme Corp., priority 2005, dated 2011).
One block for each compound: values may come before it.

Experiments:
[1] = tested on: hematopoiesis; settings: mouse, cyclophosphamide-induced neutropenia
[2] = biological target: T1, DPP-4 (Homo sapiens, UniProt P27487)
T1 construct: GRF is rapidly degraded in plasma to GRF[344]

[3] = tested on: cardiac allograft; settings: rats; doubled from day 7

T1 sequence (P27487 whole entry, species assumed): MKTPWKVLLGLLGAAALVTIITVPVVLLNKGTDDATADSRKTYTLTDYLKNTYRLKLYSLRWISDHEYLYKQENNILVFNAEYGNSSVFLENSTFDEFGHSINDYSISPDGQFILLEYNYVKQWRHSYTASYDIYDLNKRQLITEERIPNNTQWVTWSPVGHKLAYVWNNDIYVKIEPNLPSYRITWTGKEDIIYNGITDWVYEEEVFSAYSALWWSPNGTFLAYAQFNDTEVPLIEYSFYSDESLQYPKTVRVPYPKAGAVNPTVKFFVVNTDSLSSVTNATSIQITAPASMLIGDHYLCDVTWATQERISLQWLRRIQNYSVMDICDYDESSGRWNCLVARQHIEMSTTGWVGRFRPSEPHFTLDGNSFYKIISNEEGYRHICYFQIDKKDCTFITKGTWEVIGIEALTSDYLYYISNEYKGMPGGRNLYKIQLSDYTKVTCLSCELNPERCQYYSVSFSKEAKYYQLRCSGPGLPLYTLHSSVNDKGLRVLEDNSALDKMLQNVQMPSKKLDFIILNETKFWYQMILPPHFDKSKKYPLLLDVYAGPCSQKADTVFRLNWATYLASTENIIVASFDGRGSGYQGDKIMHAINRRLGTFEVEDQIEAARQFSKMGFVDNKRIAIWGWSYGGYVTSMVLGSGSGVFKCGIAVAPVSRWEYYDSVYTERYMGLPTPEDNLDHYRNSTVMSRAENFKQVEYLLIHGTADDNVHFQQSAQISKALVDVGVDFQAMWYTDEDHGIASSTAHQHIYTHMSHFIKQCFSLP

Compound: CC(C)[C@H](N)C(=O)N1CCC[C@H]1B(O)O [Val-Boro-Pro]
effect on hematopoiesis [1]: stimulated hematopoiesis

effect on degradation of GRF in plasma [2]: prevented
Compound: diprotin A

Compound: CC(C)N1CCC(c2ccccc2)(c2ccccc2)CC1 [Prodipine, Pro-Pro-diphenyl-phosphonate]
cardiac allograft survival [3]: 14 day
